Experimental data as given in patent US10898548B2, “Modulators of protein tyrosine phosphatase and uses thereof” (LEUVAS THERAPEUTICS, priority 2015, dated 2021).
Marks after values point to notes of the source that are not given here.

How the values were obtained:
U251 cells = assay: TUNEL labeling assay, U251 cells; type: cell-based; settings: 50 μM P1-WD
Procedure: (§1) Briefly, U251 GBM cells, normal primary cortical murine neurons and a mixed culture of murine microglia and astrocytes were treated for 24, 48 and 72 hours with no treatment (control), delivery peptide (P1 or TAT) or increasing concentrations of P1-WD or TAT-ICD. Cell viability and survival was measured using the MTT assay, a colorimetric assay for assessing cell metabolic activity set up under conditions where the absorption reflects the number of viable cells present (Table 21 and 22) and expressed as relative absorption at 570 nm. Early apoptosis was measured using VYBRANT DyeCycle Violet stain (Molecular Probes), a DNA-selective, cell membrane-permeant dye that can distinguish the compacted state of the nuclear chromatin in apoptotic cells as determined by flow cytometry and presented as the percent of cells that are apoptotic (Table 23 and 24). The actual number of cells following treatment with TAT-ICD or TAT alone (Table 25) was determined using flow cytometry compared to an input of 5,000 cells at time zero. To confirm apoptosis the TUNEL labeling assay, which detects DNA strand breaks in apoptotic cells by fluorescence microscopy, was also used to examine U251 cells treated with the PTPRG WD. Briefly, the assay used an optimized terminal transferase ([…]) to label 3′OH ends in genomic DNA with TMR-dUTP, thus allowing the measurement and quantification of cell death by apoptosis. U251 cells were pretreated for 1, 3 and 6 hours with 50 μM P1-WD. Then cells were fixed and permeabilized, incubated with TUNEL reaction mixture for 1 h at RT, and then stained with DAPI (for nuclei detection) and with Alexa670-Phalloidin (to detect actin in cell membranes). After the staining steps, cells were visualized with a confocal microscope.
This finding was validated using the TUNEL in situ apoptosis cell death detection staining.

U251 GBM cells = assay: MTT survival assay, U251 GBM cells; type: cell-based
Procedure: as §1

JAK2 = target: T1, JAK2 (Homo sapiens, UniProt O60674); assay: phospho-JAK2 Western Blot on monocytes; type: cell-based; settings: 50 nM fMLP 180 sec
T1 construct: endogenous in cells; host or cells: human primary monocytes
T1 sequence (O60674 whole entry): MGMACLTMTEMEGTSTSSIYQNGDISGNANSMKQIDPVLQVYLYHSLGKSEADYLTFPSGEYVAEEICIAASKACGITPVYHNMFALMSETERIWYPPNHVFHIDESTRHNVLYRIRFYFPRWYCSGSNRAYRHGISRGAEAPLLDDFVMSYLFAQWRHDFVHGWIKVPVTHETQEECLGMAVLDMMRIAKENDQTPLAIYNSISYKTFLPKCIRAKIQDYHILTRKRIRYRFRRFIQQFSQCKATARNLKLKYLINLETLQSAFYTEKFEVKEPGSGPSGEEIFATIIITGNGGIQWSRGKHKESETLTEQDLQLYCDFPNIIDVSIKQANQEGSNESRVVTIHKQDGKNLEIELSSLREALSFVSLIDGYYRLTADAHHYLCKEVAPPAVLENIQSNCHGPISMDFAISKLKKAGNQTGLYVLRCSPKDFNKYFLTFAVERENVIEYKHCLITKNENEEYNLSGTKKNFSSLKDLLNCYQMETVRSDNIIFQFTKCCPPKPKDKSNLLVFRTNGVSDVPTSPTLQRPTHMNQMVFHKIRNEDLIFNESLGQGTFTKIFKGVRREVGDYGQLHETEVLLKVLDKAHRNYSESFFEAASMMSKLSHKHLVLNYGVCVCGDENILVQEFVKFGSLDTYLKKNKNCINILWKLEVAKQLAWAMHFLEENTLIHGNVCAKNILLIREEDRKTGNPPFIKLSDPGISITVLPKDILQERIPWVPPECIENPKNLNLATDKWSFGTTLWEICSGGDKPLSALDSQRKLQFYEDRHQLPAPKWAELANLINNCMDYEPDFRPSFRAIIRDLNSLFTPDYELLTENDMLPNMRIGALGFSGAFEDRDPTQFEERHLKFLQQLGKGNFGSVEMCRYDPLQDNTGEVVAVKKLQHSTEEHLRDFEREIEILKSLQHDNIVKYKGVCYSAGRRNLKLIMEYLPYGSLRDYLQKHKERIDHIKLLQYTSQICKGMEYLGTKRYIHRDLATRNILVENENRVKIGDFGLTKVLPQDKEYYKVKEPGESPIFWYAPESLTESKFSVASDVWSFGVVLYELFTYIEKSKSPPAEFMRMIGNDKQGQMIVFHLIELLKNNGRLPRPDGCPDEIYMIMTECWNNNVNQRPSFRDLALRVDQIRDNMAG
Source text: (§2) JAK2 regulation by PTPRG as assessed through the high-throughput phospho-proteomics analysis evidenced that PTPRG activation (Example 4, Table 9 and 10) provides a useful example of the exploitation of this analysis system for identification of targets and unexpected indications/uses for known and novel agents that regulate the phoshoproteome. […] Furthermore, the capability of fMLP to trigger JAKs activation has never been observed. The results described in Example 4 unexpectedly implicate JAK2 de-phosphorylation by PTPRG as playing a role in the anti-adhesive role of PTPRG on monocytes. To test this system-generated hypothesis we first set out to define the role of JAK2 in fMLP-triggered rapid adhesion in monocytes. Time course experiments, either performed with ELISA assay or Western Blot. Briefly, purified human monocytes were treated with buffer (resting) or with 50 nM fMLP for the indicated times (Table 12), and the phosphorylation was assessed by p-Jak2 elisa and Western Blot analysis. The JAK2 activation was determined with Elisa Kit JAK2 (pYpY1007/1008) (Invitrogen). Briefly, cells were stimulated with agonist and lysed following manufacturer's protocol; levels of phospho-JAK2 were quantified (absorbance at 450 nm) with a micro-well plate reader (Victor™ X5 Multilabel Plate Reader, Perkin Elmer). For Western blot analysis, cells were lysed in ice-cold 1% Nonidet P-40 buffer, containing phosphatase inhibitors and complete protease inhibitor cocktail (Roche). Total cell lysates were quantified by Bradford assay (Bio-Rad). Equal amounts of total lysates or of isolated membranes (as described in Example 1) were subjected to 10% SDS-PAGE and then blotted. After incubation with anti-PTPRG, anti gp91^Phox, anti phospho-JAK2, anti JAK2 and HRP-linked secondary antibodies (GE Healthcare), immunoreactive bands were visualized by ECL detection (EMD Millipore). Intensities of band signals were quantified by densitometric analysis (Quantity One, Bio-Rad) by using ImageQuant Las4000. Data are mean value of three experiments; the relative ratio of the band intensity of phosphor-JAK2 was normalized to the level of JAK2 band intensities.
To evaluate whether JAK2 mediates fMLP-triggered rapid adhesion in human monocytes, we tested the capability of three JAK inhibitors, AG490, WHI-P154 and P1-TKIP peptide, to block adhesion triggering. Briefly, Monocytes were treated with buffer (resting and Control=CTRL), 100 μM AG490, 40 μM P1 or P1-TKIP peptides, or 200 μM WHI-P154 for 1 hour at 37° C. and stimulated with 50 nM fMLP for 180 sec. Cell lysates were probed with anti phospho-JAK2 and with anti JAK2. Western Blot immuoreactive band quantification; the relative ratio of the band intensity of phospho-JAK2 was normalized to the level of JAK2 band intensities; mean values of three experiments (Table 13).
The impact of TAT-ICD and P1-WD on JAK2 activation by chemoattractants was also evaluated by Western Blot analysis. Briefly, monocytes were treated with buffer (Resting, CTRL), 0.5 uM TAT-ICD, 50 μM TAT peptide, 50 μM P1-WD, P1 or P1-WD scrambled peptides for 1 hour at 37° C. and stimulated with 50 nM fMLP for 180 sec (the resting cells were not stimulated with fMLP). Total lysates were probed with anti phospho-JAK2 or with anti JAK. Western Blot immunoreactive bands were quantified and the relative ratio of the band intensity of phospho-JAK2 was normalized to the level of JAK2 band intensities; data are mean value and standard deviation of three experiments (Table 19).

JAK2 (pYpY1007/1008) = assay: p-JAK2 ELISA on monocytes; type: cell-based, human; settings: 1 hour, 50 nM fMLP 90 sec, CTRL 100
Source text: as §2
Briefly, p-JAK2 ELISA assay on human monocytes treated with buffer (CTRL=control), 50 μM P1-WD, P1 or P1-WD scrambled peptides (Table 17), or with buffer (CTRL=control), 0.5 uM TAT-ICD or 50 μM TAT peptide (Table 18) for 1 hour at 37° C. and stimulated with 50 nM fMLP for 90 sec. Shown are percentages of fold increases over the control; mean values of 3 experiments in triplicate.

[1] = 0.5 uM TAT-ICD, 50 μM TAT, 50 μM P1-WD, P1 or P1-WD scrambled, 1 hour, CTRL 50, Resting 8
[2] = 0.5 uM TAT-ICD or 50 μM TAT peptide
[3] = 100 μM AG490, 40 μM P1 or P1-TKIP, 200 μM WHI-P154, 1 hour, CTRL 207.7, Resting 18.8
[4] = P1 or P1-WD 50 uM, 24 hours, control 821
[5] = P1 or P1-WD 50 uM, 48 hours, control 1943
[6] = P1 or P1-WD 50 uM, 72 hours, control 2556
[7] = 50 μM P1-WD, P1 or P1-WD scrambled

Row | Compound | DNA fragmentation, TUNEL staining (U251 cells) | phospho-JAK2 band intensity normalized to JAK2, Western Blot (JAK2; [1]) | p-JAK2 ELISA, percentages of fold increases over the control (JAK2 (pYpY1007/1008); [2]) [%] | phospho-JAK2 band intensity normalized to JAK2, Western Blot (JAK2; [3]) | MTT relative absorption at 570 nM (U251 GBM cells; [4]) | MTT relative absorption at 570 nM (U251 GBM cells; [5]) | MTT relative absorption at 570 nM (U251 GBM cells; [6]) | p-JAK2 ELISA, percentages of fold increases over the control (JAK2 (pYpY1007/1008); [7]) [%] | further results
1 | TAT (GRKKRRQRRRPPQ; listed as Homo sapiens) [reference compound] | did not show fragmented DNA or cell loss | 40 | 99 | – | – | – | – | – | MTT relative absorption at 570 nM (U251 GBM cells; TAT 50 uM, 24 hrs, Control 821): 825; MTT relative absorption at 570 nM (U251 GBM cells; TAT 50 uM, 48 hrs, Control 1943): 1654; MTT relative absorption at 570 nM (U251 GBM cells; TAT 50 uM, 72 hrs, Control 2556): 2068
2 | TAT-ICD: fusion recombinant protein SEQ ID 5: PTPRG intracellular domain aa 797-1445 fused to 13 aa TAT sequence | – | 15* | 53 | – | – | – | – | – | MTT relative absorption at 570 nM (U251 GBM cells; TAT-ICD 0.5 uM, 24 hrs, Control 821): 568; MTT relative absorption at 570 nM (U251 GBM cells; TAT-ICD 0.5 uM, 48 hrs, Control 1943): 969; MTT relative absorption at 570 nM (U251 GBM cells; TAT-ICD 0.5 uM, 72 hrs, Control 2556): 1630; MTT relative absorption at 570 nM (U251 GBM cells; TAT-ICD 1.0 uM, 24 hrs, Control 821): 353; MTT relative absorption at 570 nM (U251 GBM cells; TAT-ICD 1.0 uM, 48 hrs, Control 1943): 526; MTT relative absorption at 570 nM (U251 GBM cells; TAT-ICD 1.0 uM, 72 hrs, Control 2556): 830; MTT relative absorption at 570 nM (U251 GBM cells; TAT-ICD 2.0 uM, 24 hrs, Control 821): 244; MTT relative absorption at 570 nM (U251 GBM cells; TAT-ICD 2.0 uM, 48 hrs, Control 1943): 236; MTT relative absorption at 570 nM (U251 GBM cells; TAT-ICD 2.0 uM, 72 hrs, Control 2556): 279
3 | COc1cc2ncnc(Nc3ccc(O)c(Br)c3)c2cc1OC [WHI-P154] | – | – | – | 4.9 | – | – | – | – | –
4 | P1-WD: fusion Trojan peptide SEQ ID 3: Penetratin, glycine, PTPRG wedge domain aa 831-856; RQIKIWFQNRRMKWKKGKQFVKHIGELYSNNQHGFSEDFEEVQ (listed as Homo sapiens) | fragmented DNA as early as 3 hours after initiation of treatment | 12* | – | – | 411 | 733 | 1060 | 51 | MTT relative absorption at 570 nM (U251 GBM cells; P1-WD 10 uM, 24 hours, control 821): 656; MTT relative absorption at 570 nM (U251 GBM cells; P1-WD 10 uM, 48 hours, control 1943): 1400; MTT relative absorption at 570 nM (U251 GBM cells; P1-WD 10 uM, 72 hours, control 2556): 1593; MTT relative absorption at 570 nM (U251 GBM cells; P1-WD 25 uM, 24 hours, control 821): 469; MTT relative absorption at 570 nM (U251 GBM cells; P1-WD 25 uM, 48 hours, control 1943): 820; MTT relative absorption at 570 nM (U251 GBM cells; P1-WD 25 uM, 72 hours, control 2556): 1281
5 | N#C/C(=C/c1ccc(O)c(O)c1)C(=O)NCc1ccccc1 [AG490] | – | – | – | 9.2 | – | – | – | – | –
6 | P1: Penetratin delivery peptide, 16 aa RQIKIWFQNRRMKWKK (SEQ ID 4), control [reference compound] | did not show fragmented DNA or cell loss | 49 | – | 111.4 | 600 | 1743 | 2294 | 95 | –
